≈ marks a conversion by molar mass, not a printed value. Like-named read-outs stand apart in the source and are kept apart here.
How the values were obtained:
[1] = in vitro; conditions: dog
[2] = tested on: A/Hong Kong/8/68 (H3N2, HK); assay: microbe, parasite or virus in culture; conditions: Influenza A virus, H3N2, MDCK, 72 h, read-out: EC50 HK
[3] = tested on: A/Hong Kong/8/68 (H3N2, HK); conditions: for EC50: read-out: EC50 HK; for S.I. (CC50/EC50) HK: Table 2
[4] = tested on: influenza viruses PR8, HK and Lee; assay: CPE inhibition assay, results stated over all strains; format: cell-based, influenza A and B viruses; conditions: for EC50: Influenza A virus, PR8, range over the strains (and compounds named)
[5] = tested on: B/Lee/40 (Lee); conditions: for S.I. (CC50/EC50) Lee: Table 2
[6] = tested on: MDCK cells; assay: Cell viability (MTT) of mock-infected MDCK cells; conditions: 300 μg/mL
[7] = Cell viability (MTT) of mock-infected MDCK cells; conditions: dog, mock-infected MDCK cells
[8] = tested on: B/Lee/40 (Lee); assay: microbe, parasite or virus in culture; conditions: Influenza B virus, MDCK, 72 h, read-out: EC50 Lee
[9] = tested on: A/Puerto Rico/8/34 (H1N1, PR8); assay: microbe, parasite or virus in culture; conditions: Influenza A virus, MDCK, 72 h, read-out: EC50 PR8
[10] = tested on: PR8; assay: Time-of-addition plaque assay; format: cell-based, influenza A virus
[11] = tested on: A/Puerto Rico/8/34 (H1N1, PR8); conditions: Table 2
[12] = tested on: influenza viruses PR8, HK and Lee; conditions: for inhibition of plaque formation: MOI 0.001, 3 days, crystal violet
Description: MDCK cells seeded in 48-well plates were infected with the influenza viruses at an MOI of 0.001 for 1 h at 33 °C (PR8) or 35 °C (HK and Lee). Test compounds and reference antiviral compounds were serially diluted in overlay medium [MEM containing 0.5% carboxymethylcellulose (CMC; Sigma) and 2 μg/mL TPCK-trypsin]. After washing with PBS, the cells were treated with the compounds in the overlay medium for 3 days at the temperature used for virus infection. Viral plaques were counted by staining with crystal violet [20].

[13] = tested on: PR8 virus (viral NP); format: cell-based, influenza A virus
[14] = tested on: MDCK cells; conditions: dog, 3 days, 300 μg/mL
[15] = CPE inhibition assay, PR8, HK and Lee

Row | SMILES | CC50 at 3 days [1] | EC50 [2] | S.I. (CC50/EC50) Lee [5] | CC50 at 3 days [7] [µg/mL] | S.I. (CC50/EC50) HK [3] | EC50 [8] | EC50 [9] [µg/mL] | effect on plaques, pre-treatment [10] | S.I. (CC50/EC50) PR8 [11] | inhibition of plaque formation [12] | EC50 ([4]; CPE inhibition assay) [µg/mL] | effect on viral NP production/localization [13] | other results
1 | CCC(CC)O[C@@H]1C=C(C(=O)O)C[C@H](N)[C@H]1NC(C)=O [OSV-C, oseltamivir carboxylate, reference compound] | > 100 µM | 0.005 µM | – | – | – | – | – | – | – | – | – | – | EC50 [3]: < 0.005 µM; anti-influenza activity in words [4, 15]: efficiently inhibited the replication of all viral strains tested
2 | O=c1c(O)c(-c2ccc(O)c(O)c2)oc2cc(O)cc(O)c12 [PC1, Quercetin] | – | 13.1 µg/mL | > 20.0 | > 300 | > 22.9 | 15 µg/mL | 12.6 (≈ 41.7 µM) | – | – | – | – | – | cytotoxicity to MDCK cells at the highest concentration [6]: without cytotoxicity
3 | COC(=O)c1ccc(O)c(O)c1 [PC2, Protocatechuic acid methyl ester] | 24.1 µg/mL | > 24.1 µg/mL | 2.2 | – | – | 11.1 µg/mL | > 24.1 | – | – | – | – | – | –
4 | O=C(O)c1cc(O)c(O)c(O)c1 [PC3, Gallic acid] | – | 17.5 µg/mL | – | – | – | – | – | – | – | – | – | – | CC50 [1]: 111 µg/mL (≈ 653 µM)
5 | O=c1oc2c(O)c(O)cc3c(=O)oc4c(O)c(O)cc1c4c23 [PC5, Ellagic acid] | – | 62.4 µg/mL | > 3.8 | > 300 | > 4.8 | 79.2 µg/mL | 81.1 (≈ 268 µM) | reduced viral plaque titers | > 3.7 | inhibited plaque formation of influenza A and B viruses in a dose-dependent manner | 14.7 to 81.1 (≈ 48.6 to 268 µM) | inhibit the early steps | effect on plaques, co-treatment [10]: plaque reduction was more distinct; effect on plaques, post-treatment [10]: reduced viral plaque titers
6 | CC[C@H](CC[C@@H](C)[C@H]1CC[C@H]2[C@@H]3CC=C4C[C@@H](O)CC[C@]4(C)[C@H]3CC[C@]12C)C(C)C [PC6, β-Sitosterol] | – | 300 µg/mL | – | – | 1.0 | > 300 µg/mL | 282 (≈ 679 µM) | – | 1.1 | – | – | – | CC50 [1]: 300 µg/mL (≈ 723 µM); anti-influenza activity in words [4, 15]: marginal or no anti-influenza activity
7 | COC(=O)c1cc(O)c(O)c(O)c1 [PC7, Methyl gallate] | > 300 µg/mL | 17.1 µg/mL | > 15.6 | – | > 17.5 | 19.2 µg/mL | 18.1 (≈ 98.3 µM) | no inhibition | > 16.6 | inhibited plaque formation of influenza A and B viruses in a dose-dependent manner | 14.7 to 81.1 (≈ 79.8 to 440 µM) | inhibit the early steps | plaque reduction, co-treatment [10]: about 35%; reduction of viral infectivity, post-treatment [10]: 15%; cytotoxicity seen as faint crystal violet background ([12]; MDCK cells, concentrations higher than 33 μg/mL): marginal cytotoxicity; reduction of cell viability [14]: 49%
8 | O=C(O)/C=C/c1ccc(O)c(O)c1 [PC8, Caffeic acid] | – | 32.1 µg/mL | > 20.4 | > 300 | > 9.4 | 14.7 µg/mL | 37.8 (≈ 210 µM) | no significant antiviral activity | > 7.9 | inhibited plaque formation of influenza A and B viruses in a dose-dependent manner | 14.7 to 81.1 (≈ 81.6 to 450 µM) | did not affect NP signal intensity or its localization | effect on plaques, co-treatment [10]: barely showed the efficacy at the maximum concentration; effect on plaques, post-treatment [10]: no significant antiviral activity; cytotoxicity to MDCK cells at the highest concentration [6]: without cytotoxicity
9 | NC(=O)c1ncn([C@@H]2O[C@H](CO)[C@@H](O)[C@H]2O)n1 [RBV, ribavirin, reference compound] | – | 20.5 µM | – | – | – | 26.6 µM | – | – | – | – | – | – | EC50 ([5]; read-out: EC50 Lee): 17 µM; EC50 [3]: 15.5 µM; anti-influenza activity in words [4]: efficiently inhibited the replication of all viral strains tested
